Test in all cases: growth of human tumour cells (NCI), 48 h
Test [1] concerns HOP-92 NSCLC.
In test [2] the test system is SK-MEL-5 melanoma.
The test system of test [3] is SR leukemia.
For test [4], the system named is COLO 205 colon.
Test [5] deals with NCI-H226 lung.
In test [6] the test system is K-562 leukemia.
The test system of test [7] is HT29 colon.
Test [8] concerns MDA-MB-231 breast.
The subject of test [9] is MALME-3M melanoma.
The test system of test [10] is SNB-19 CNS.
Test [11] concerns HCC-2998 colon.
Test [12] concerns CAKI-1 renal.
For test [13], the system named is SF-539 CNS.
Test [14] deals with PC-3 prostate.
For test [15], the system named is A498 renal.
The test system of test [16] is BT-549 breast.

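Briefly, cells in 96-well plates were exposed to five compound concentrations for 48 h, and endpoints were estimated by linear interpolation. TGI is the concentration that stops growth completely.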

With `O=S(=O)(O)C(=Nc1cccc(Cc2ccccc2)c1)Nc1cccc(Cc2ccccc2)c1`, the TGI in [1] is 28.6 µM; in [2], 32.4 µM; in test [3], 69.7 µM; in [4], 34.3 µM; in test [5], 33.7 µM; in test [6] it was greater than 100 µM. Also, the TGI was 34.5 µM in [7]; 38.2 µM in test [8]; 32.6 µM in test [9]; 48.5 µM in [10]; 35.5 µM in test [11]; greater than 100 µM in [12]. Further, the TGI in test [13] came to 34.7 µM; in test [14], 35.1 µM; in test [15], 45.8 µM; in test [16] it was 33.4 µM.
On to `CCCCc1ccc(Nc2nc(SC)c3[nH]cnc3n2)cc1`, for which the TGI in [1] was greater than 100 µM; in test [2] it was greater than 100 µM; in [3], 9.69 µM; in test [4], greater than 100 µM; in test [5] it was greater than 100 µM; in test [6], greater than 31.3 µM. The TGI in test [7], in test [8], in test [9], in test [10], in [11] and in test [12] was greater than 100 µM throughout. Besides, the TGI was greater than 100 µM in test [13], greater than 100 µM in test [14], greater than 78.5 µM in test [15] and greater than 100 µM in [16].
With `Cn1c(O)c(C=Nc2ccccc2[N+](=O)[O-])c(=O)n(C)c1=O`, the TGI in test [1], in test [2], in test [3], in test [4], in test [5] and in test [6] was greater than 100 µM each time. Besides, the TGI in [7], in test [8], in test [9], in test [10], in test [11] and in [12] was greater than 100 µM in each case. Moreover, the TGI in test [13], in test [14], in test [15] and in test [16] was greater than 100 µM throughout.
For the molecule `CCCCCCC(=O)O[C@H]1CC[C@H]2[C@@H]3CCC4C/C(=N/NC(=O)c5cccc6c(=O)c7ccccc7[nH]c56)C=C(C)[C@]4(C)[C@H]3CC[C@]12C` (stereo partly drawn), the TGI in [1], in test [2], in test [3], in test [4], in test [5] and in test [6] was greater than 25 µM each time. Further, the TGI in test [7], in [8], in test [9], in test [10], in test [11] and in test [12] was greater than 25 µM throughout. For the same molecule, the TGI in test [13], in test [14] and in test [16] was greater than 25 µM each time.
`C[C@@H](c1ccccc1)N1CN(C(=O)OCc2ccccc2)C(C)(C)CC1=O`: the TGI in test [1], in test [2], in [3], in test [4], in test [5] and in test [6] was greater than 100 µM each time. In addition, the TGI in test [7], in [8], in [9], in test [10], in test [11] and in test [12] was greater than 100 µM in each case. In addition, the TGI in test [13], in test [14] and in test [16] was greater than 100 µM throughout.
As for `CCOC(=O)c1nc2ccccc2nc1NCc1cc(OC)c(OC)c(OC)c1`, the TGI in test [1], in test [2], in [3], in test [4], in test [5] and in test [6] was greater than 100 µM in each case. Besides, the TGI in test [7], in test [8], in test [9], in [11], in test [12] and in [13] was greater than 100 µM each time. Also, the results for the TGI in test [14], in [15] and in test [16] were greater than 100 µM, 96.2 µM and greater than 100 µM, respectively.
As for `O=C1NC(=S)N/C1=C\c1ccc(Br)s1`, the TGI in test [1], in test [2], in [3], in [4], in test [5] and in test [6] was greater than 100 µM in each case. Moreover, the TGI in test [7], in test [8], in [9], in test [10], in test [11] and in test [12] was greater than 100 µM throughout. Further, the TGI in [14], in test [15] and in [16] was greater than 100 µM in each case.
With `CC(C)OCC1CC(CC(=O)Nc2nncs2)C(=O)O1` (stereo not drawn), the TGI in [1], in test [2], in test [3], in [4], in test [5] and in test [6] was greater than 100 µM in each case. For the same molecule, the TGI in [7], in test [8], in test [10], in [11], in [12] and in test [13] was greater than 100 µM throughout. Besides, the TGI in [14] and in test [16] was greater than 100 µM throughout.
`O=C(CCCN1CCC2(CC1)CC(=O)N(N1CCCCCC1)C2=O)c1ccccc1`: the TGI in [1], in test [2], in [3], in [4], in test [5] and in test [6] was greater than 100 µM throughout. Further, the TGI in [7], in test [8], in test [9], in [10], in test [12] and in test [13] was greater than 100 µM in each case. The TGI in [14], in [15] and in [16] was greater than 100 µM throughout.
Consider `Cc1nn(C(=O)c2ccc(Cl)cc2)c2c1C(c1ccccc1[N+](=O)[O-])SC(N)=N2` (stereo not drawn), for which the TGI in test [1], in test [2], in [3], in test [4], in test [5] and in test [6] was greater than 10 µM throughout. Also, the TGI in test [7], in test [8], in [9], in test [10], in test [11] and in test [12] was greater than 10 µM each time. The TGI in test [13], in [14] and in [16] was greater than 10 µM each time.
`CC(=O)Oc1ccc(-c2cc3ccccc3oc2=O)cc1`: the TGI in test [1], in test [3], in [4], in test [5], in [6] and in [7] was greater than 100 µM throughout. Further, the TGI in [8], in test [9], in test [10], in test [11], in test [13] and in [14] was greater than 100 µM each time. Moreover, the TGI in test [15] and in test [16] was greater than 100 µM in each case.
In the case of `NC(=O)c1cc2ccc(O)cc2oc1=Nc1ccccc1`, the TGI is greater than 100 µM in [1]; 69 µM in [2]; 53.9 µM in [3]; 44 µM in [4]; 88.6 µM in test [5]; greater than 100 µM in [6]. Besides, the TGI in test [7] was greater than 100 µM; in test [8], greater than 100 µM; in test [9], greater than 100 µM; in test [10] it was greater than 100 µM; in test [11], 78.8 µM; in [12], greater than 100 µM. The TGI in [14] is greater than 100 µM; in [15] it was 68.1 µM; in [16] it was greater than 100 µM.
On to `O=C(CCc1ccc(O)c(O)c1)NCCc1cc(O)cc(O)c1`, for which the TGI in test [1] was greater than 100 µM; in test [2], greater than 100 µM; in test [3] it was greater than 100 µM; in test [4] it was greater than 100 µM; in test [5], greater than 100 µM; in [6], 79.4 µM. In addition, the TGI in [7], in test [8], in test [10], in test [11], in [12] and in [13] was greater than 100 µM in each case. For the same molecule, the TGI in test [14], in test [15] and in [16] was greater than 100 µM each time.
`COc1cc(CO)c(CC(=O)NCCCc2ccccc2)cc1OC`: the TGI in test [1], in test [2], in test [3], in [4], in test [5] and in test [6] was greater than 100 µM throughout. Moreover, the TGI in [7], in [8], in test [9], in test [10], in [11] and in test [12] was greater than 100 µM throughout. Moreover, the TGI in test [14], in test [15] and in test [16] was greater than 100 µM each time.
`CCCN(CCCc1ccccc1)CCc1ccc2[nH]c(=S)[nH]c2c1`: the TGI in test [1] is 42.6 µM; in test [3] it was 25.1 µM; in test [4], 42.6 µM; in test [5], greater than 100 µM; in [6], 29.3 µM; in test [8], greater than 100 µM. Besides, the TGI in [9] is 25.5 µM; in [10], 91.7 µM; in test [11], 26 µM; in test [12], greater than 100 µM; in [14], greater than 100 µM; in test [15], greater than 100 µM. This molecule also came in with a TGI in test [16] greater than 100 µM.
Regarding `COc1ccc(CC(=O)N2CCC3(C)CC(=O)CC=C23)cc1OC` (stereo not drawn), the TGI in test [1], in test [2], in [3], in test [4], in test [5] and in test [6] was greater than 100 µM in each case. Moreover, the TGI in test [7], in test [8], in test [9], in test [10], in [12] and in [13] was greater than 100 µM each time. In addition, the TGI in [14], in [15] and in test [16] was greater than 100 µM each time.
As to `CN1CCN(c2ncc3c(n2)sc2c(=O)n(-c4ccccc4)cnc23)CC1`, the TGI in test [1], in test [2], in test [3], in [4], in test [5] and in test [6] was greater than 100 µM each time. For the same molecule, the TGI in test [7], in test [8], in test [9], in [10], in test [11] and in [12] was greater than 100 µM in each case. The TGI in test [14], in test [15] and in test [16] was greater than 100 µM each time.
Take `CN(C)CCCNc1ccc([N+](=O)[O-])c2nc3ccccc3c(N)c12`: the TGI is 5.08 µM in test [1]; 2.44 µM in test [2]; greater than 10 µM in test [3]; greater than 10 µM in [5]; 2.27 µM in test [6]; 1.72 µM in [7]. The TGI is 2.53 µM in [8]; greater than 10 µM in [9]; 3.23 µM in test [10]; greater than 10 µM in test [12]; 1.82 µM in test [13]; 1.69 µM in test [14]. For the same molecule, the TGI in test [15] was 6.92 µM; in test [16], 4.75 µM.

(Values after PubChem BioAssay (NCI).)
